Data taken from patent US7241732B2, “Compositions and methods involved in bone growth” (University of Rochester, priority 2001, dated 2007).

What was measured:
[1] = system: osteoblast gene products; test: Osteoblast gene expression profile assay (real-time PCR); type: cell-based
Experimental: Both GPC4 and TRIP have been used in the creation of an osteoblast gene expression profile assay. This assay utilizes cDNA primer pairs that can be used to amplify a number of osteoblast gene products with real-time PCR. In addition to GPC4 and TRIP the following are assayed; osteocalcin (a bone specific protein), alkaline phosphatase (an enzyme present in large amounts in osteoblasts, cbfa1 (a transcription factor that induces osteoblast differentiation), PTH receptor 1 (the receptor responsible for PTH action), PTH receptor 2 (a secondary receptor that may be responsible for PTHrP action).
The data are interpretted by analyzing an increase in PCR cycle number, i.e. the number of PCR cycles necessary to obtain product. The higher the cylce number the smaller amount of starting mRNA.

[2] = target: T1, type V tartrate resistant acid phosphatase (TRAP) (Sus scrofa, UniProt P09889); test: Phage display bio-panning of random 12 amino acid M13 library with immobilized TRAP; type: binding; details: 44 phage clones sequenced after three rounds of bio-panning with TRAP
T1 construct: One was from a purified protein extraction; from tissue; host or cells: gift of Dr. R. M. Roberts (University of Missouri)
T1 sequence (P09889 22-340): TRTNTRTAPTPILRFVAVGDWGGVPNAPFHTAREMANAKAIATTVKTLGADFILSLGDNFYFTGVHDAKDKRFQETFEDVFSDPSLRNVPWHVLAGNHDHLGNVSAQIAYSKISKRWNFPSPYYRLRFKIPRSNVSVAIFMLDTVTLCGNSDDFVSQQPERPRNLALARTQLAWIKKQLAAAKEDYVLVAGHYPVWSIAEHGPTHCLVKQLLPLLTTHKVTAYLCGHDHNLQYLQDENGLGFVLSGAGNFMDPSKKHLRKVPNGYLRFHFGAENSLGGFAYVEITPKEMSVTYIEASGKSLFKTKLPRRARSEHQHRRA
From the text: In phage display either random peptide libraries or cell specific cDNA libraries can be used. Both have been used to target the interactions that take place in bone resporbtion and formation. Generally, the peptides or proteins are expressed on the surface coat of M13 or T7 phage and then these phage are used in a biopanning technique to identify which phage have affinity for a particular substrate (the “bait”). The adherent phage are eluted, amplified and used in another round of panning. After at least three rounds, phage clones are sequenced.
The TRAP used in these experiments was purified to homogeneity and was generously provided by Dr. M. Roberts.
After three rounds of bio-panning, elution and amplification 44 phage clones were selected at random and sequenced. Nine different sequences were identified. They are listed in Table 4 along with their consensus frequency. The most frequent phage sequenced was represented 15 times and the least frequent only a single time.

[3] = system: osteoblast binding to osteoclast lacunae; test: Competition cell binding assay, osteoblasts on pitted bone wafers; type: cell-based, rat
Experimental: (§1) The 12 amino acid oligopeptide corresponding to the sequence from Clone 5 can inhibit osteoblast binding to osteoclast lacunae. […] (For these experiments, approximately 20% of the area of the wafers was pitted.) A concentration of 50 nM for the oligopeptide blocked osteoblast binding by approximately 66%. A statistically significant inhibition for binding occurred down to a concentration of 10 pM of the oligopeptide.
as §1, with “For” for “(For”, “pitted.” for “pitted.)”
To measure the effect of selected phage peptides on osteoblast binding in osteoclast lacunae we performed a cell binding assay in the presence of increasing concentrations of the phage peptide. Osteoblasts were prelabeled with L-[4,5-^3H]Leucine (250 μCi TRK636-250 μCi, Amersham ) for 24 hrs. The osteoblasts were then added to pitted bone wafers in the presence of increasing concentrations of a synthetic 12 amino acid peptide that was identical to the phage sequence. After a two hour incubation at 37° C. the wafers were washed and the amount of radiolabel associated on each wafer determined by scintillation spectrometry. The specific activity of the cells (i.e. cpm/cell) was used to determine the number of cells adhering to the wafers.

[4] = system: TRAP (GAL-4-BD-TRAP); test: Mammalian two-hybrid assay TRAP / GPC4; type: cell-based, human; details: SaOS2 cells
Experimental: A mammalian two-hybrid assay was performed utilizing materials obtained from Clonetech (catalog #K1602-1). In this procedure we created two fusion proteins; a GAL4-BD-TRAP and a VP16-AD-GPC4. […] The TRAP sequence was obtained from Dr. James Bixley, University of Missouri, Columbia, Mo. GPC4 was obtained from a human osteoblast cDNA library from MG-63 cells.
GAL-4-BD-TRAP binds to the promoter of a luciferase reporter gene and the VP-16-AD-GPC4 activates RNA polymerase II activity. If the two target proteins interact with each other they will bring the binding domain protein into the vicinity of the activation domain and luciferase transcription will occur. The presence of luciferase activity in co-transfected cells is evidence for a physical association between the proteins.
In a control experiment, a second VP-16-AD protein was constructed using a GPC4 sequence deficient in the 12 amino acids identified from Clone 5 phage biopanning. This construct is termed VP-16-AD-GPC412. Deletion of the 12 amino acids from the GPC4 gene was accomplished with linker scanning mutagenesis
Pairs of plasmids were co-transfected into SaOS2 osteoblast-like cells using Lipofectamine®.

TRAP (GAL-4-BD-TRAP), sequence (P13686 22-325): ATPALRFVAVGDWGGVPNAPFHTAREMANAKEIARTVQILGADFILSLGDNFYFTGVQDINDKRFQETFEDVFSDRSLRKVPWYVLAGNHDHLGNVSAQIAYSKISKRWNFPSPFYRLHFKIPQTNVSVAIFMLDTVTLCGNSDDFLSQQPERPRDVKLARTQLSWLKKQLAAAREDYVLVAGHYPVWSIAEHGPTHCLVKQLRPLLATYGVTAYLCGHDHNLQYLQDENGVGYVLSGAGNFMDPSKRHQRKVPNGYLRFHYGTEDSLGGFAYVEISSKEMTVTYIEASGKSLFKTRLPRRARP

Lead
effect on osteoblast gene products (in words) [1]: depresses all of the above gene products including GPC4 and TRIP
Lead PCR cycle number, TRIP ([1]; control 21): 26
Lead PCR cycle number, alkaline phosphatase ([1]; control 23): 27
Lead PCR cycle number, osteocalcin ([1]; control 23): 26
Lead PCR cycle number, cbfa1 ([1]; control 24): 28
Lead PCR cycle number, PTH receptor 1 ([1]; control 28): 33
Lead PCR cycle number, PTH receptor 2 ([1]; control 31): 32
Lead PCR cycle number, GPC4 ([1]; higher cycle number = smaller amount of starting mRNA, control 19): 24

SEQ. ID No. 2: phage clone insert DNA from TRAP bio-panning, encodes peptide SEQ. ID No. 20 (DNA ACTATGGGTTTTACGGCTCCGCGGTTTCCGCATTAT; expressed or natural sequence)
Fre (consensus frequency among sequenced phage clones) [2]: 6/44

SEQ. ID No. 3: phage clone insert DNA from TRAP bio-panning, encodes peptide SEQ. ID No. 21 (DNA TCTCAGTGGCATCCGCGGTCTGCGTCGTATCCGATG; expressed or natural sequence)
Fre (consensus frequency among sequenced phage clones) [2]: 4/44

SEQ. ID No. 4: phage clone insert DNA from TRAP bio-panning, encodes peptide SEQ. ID No. 22 (DNA ACGCCGTCTCTTCCTCCGACTATGTTTCGGTTGACT; expressed or natural sequence)
Fre (consensus frequency among sequenced phage clones) [2]: 4/44

SEQ. ID No. 6: phage clone insert DNA from TRAP bio-panning, encodes peptide SEQ. ID No. 24 (DNA CGGCCACGGAACACCAGTAGACGTCCCATGCGCAGA; expressed or natural sequence)
Fre (consensus frequency among sequenced phage clones) [2]: 2/44

SEQ. ID No. 7: phage clone insert DNA from TRAP bio-panning, encodes peptide SEQ. ID No. 25 (DNA ATAATGCGGAAACCGCGGAGCCGTAAAACCCATAGT; expressed or natural sequence)
Fre (consensus frequency among sequenced phage clones) [2]: 5/44

SEQ. ID No. 8: phage clone insert DNA from TRAP bio-panning, encodes peptide SEQ. ID No. 26 (DNA CGGCCAACGGAACACCAGTAGACGTCCCATGCGCAG; expressed or natural sequence)
Fre (consensus frequency among sequenced phage clones) [2]: 2/44

SEQ. ID No. 9: phage clone insert DNA from TRAP bio-panning, encodes peptide SEQ. ID No. 27 (DNA ACCAAGCCCCGAATCACGCGAATAAAGCGGCCAAGA; expressed or natural sequence)
Fre (consensus frequency among sequenced phage clones) [2]: 2/44

TPLSYLKGLVTV [Clone 5 peptide]
blocked osteoblast binding ([3]; 50 nM oligopeptide, about 20% of wafer area pitted): approximately 66%
interference with osteoblast binding to osteoclast lacunae (in words) ([3]; FIG. 13): interfere with this osteoblast binding in a dose dependent fashion
lowest concentration with statistically significant inhibition of osteoblast binding ([3]; pitted bone wafers): 10 pM

B1: VP-16-AD-GPC4: glypican 4 (GPC4) expressed as fusion protein with VP-16 activation domain (protein)
chain: ALLAAELKSKSCSEVRRLYVSKGFNKNDAPLHEINGDHLKICPQGSTCCSQEMEEKYSLQSKDDFKSVVSEQCNHLQAVFASRYKKFDEFFKELLENAEKSLNDMFVKTYGHLYMQNSELFKDLFVELKRYYVVGNVNLEEMLNDFWARLLERMFRLVNSQYHFTDEYLECVSKYTEQLKPFGDVPRKLKLQVTRAFVAARTFAQGLAVAGDVVSKVSVVNPTAQCTHALLKMIYCSHCRGLVTVKPCYNYCSNIMRGCLANQGDLDFEWNNFIDAMLMVAERLEGPFNIESVMDPIDVKISDAIMNMQDNSVQVSQKVFQGCGPPKPLPAGRISRSISESAFSARFRPHHPEERPTTAAGTSLDRLVTDVKEKLKQAKKFWSSLPSNVCNDERMAAGNGNEDDCWNGKGKSRYLFAVTGNGLANQGNNPEVQVDTSKPDILILRQIMALRVMTSKMKNAYNGNDVDFFDISDESSGEGSGSGCEYQQCPSEFDYNATDHAGKSANEKADS
modifications: left off: large carriers
increase in luciferase activity on co-transfection with GAL-4-BD-TRAP [4]: 10-20 fold

B2: VP-16-AD-GPC412: VP-16-AD fusion of GPC4 deficient in the 12 amino acids identified from Clone 5 (protein)
chain: ALLAAELKSKSCSEVRRLYVSKGFNKNDAPLHEINGDHLKICPQGSTCCSQEMEEKYSLQSKDDFKSVVSEQCNHLQAVFASRYKKFDEFFKELLENAEKSLNDMFVKTYGHLYMQNSELFKDLFVELKRYYVVGNVNLEEMLNDFWARLLERMFRLVNSQYHFTDEYLECVSKYTEQLKPFGDVPRKLKLQVTRAFVAARTFAQGLAVAGDVVSKVSVVNPTAQCTHALLKMKPCYNYCSNIMRGCLANQGDLDFEWNNFIDAMLMVAERLEGPFNIESVMDPIDVKISDAIMNMQDNSVQVSQKVFQGCGPPKPLPAGRISRSISESAFSARFRPHHPEERPTTAAGTSLDRLVTDVKEKLKQAKKFWSSLPSNVCNDERMAAGNGNEDDCWNGKGKSRYLFAVTGNGLANQGNNPEVQVDTSKPDILILRQIMALRVMTSKMKNAYNGNDVDFFDISDESSGEGSGSGCEYQQCPSEFDYNATDHAGKSANEKADSAGVRPGAQAYLLTVFCILFLVMQREWR
modifications: left off: large carriers
increase in luciferase activity on co-transfection with GAL-4-BD-TRAP [4]: showed no difference from control levels
